The values that follow are results of earlier work, collected in patent publication US12473269B2, “Urolithin derivatives and methods of use thereof” (Vandria SA, priority 2021, dated 2025).

This series deals with C2C12 myoblasts. The following applies: treatment of C2C12 myoblasts; mitochondrial fragmentation and decrease in mitochondrial content; Ryu et al., Nat Med 2016.

Regarding `O=c1oc2cc(O)ccc2c2ccc(O)cc12` [UA, Urolithin A], the induction of mitophagy result is “induction of mitophagy”.
